From patent publication US20090156399A1, “Synergistic Insecticide Mixtures” (Bayer CropScience AG, priority 2005, published 2009)

Tested on: Myzus persicae
Experiment: Myzus persicae test (cabbage leaf dip)
Format: in vivo
Description: The expected activity for a given combination of two active compounds can be calculated (cf. COLBY, S. R.; “Calculating Synergistic and Antagonistic Responses of Herbicide Combinations”, Weeds 15, pages 20-22, 1967):
if • X=the kill rate, expressed in % of the untreated control, when employing active compound A at an application rate of m ppm, • Y=the kill rate, expressed in % of the untreated control, when employing active compound B at an application rate of n ppm, • E=the kill rate, expressed in % of the untreated control, when employing active compounds A and B at application rates of m and n ppm, then
If the actual insecticidal kill rate is higher than the calculated one, the kill rates of the combination are superadditive, i.e. a synergistic effect is present. In this case, the kill rate that is actually observed has to be higher than the value, calculated using the formula above, for the expected kill rate (E).
To produce a suitable preparation of active compound, 1 part by weight of active compound is mixed with the stated amounts of solvent and emulsifier, and the concentrate is diluted with emulsifier-containing water to the desired concentration. […]
After the desired period of time, the kill in % is determined. […] The determined kill rates are entered into Colby's formula (see page 27).

Row | SMILES | Kill in % after 1d (0.8 ppm, cabbage leaves (Brassica oleracea) dipped, after 1 d) [%] | Kill in % after 6d (0.16 ppm, cabbage leaves dipped, after 6 d) [%]
1 | N#C/N=C1\SCCN1Cc1ccc(Cl)nc1 [Thiacloprid] | 30 | 
2 | CN/C(=N\[N+](=O)[O-])NCc1cnc(Cl)s1 [Clothianidin] |  | 0
